Assay results published in US20240043405A1, “POTENT AND SELECTIVE IRREVERSIBLE INHIBITORS OF IRAK1” (Dana-Farber Cancer Institute, Inc., priority 2020, published 2024).

Legend:
[1] = target: IRAK1 (Homo sapiens (Human), UniProt P51617); assay: Adapta Universal Kinase Assay (ThermoFisher) against IRAK1; format: biochemical; conditions: IRAK1/Histone H3 (1-20) peptide, 60 minutes at room temperature
Procedure: To measure the IC50 values of the compounds herein against IRAK1, the Adapta Universal Kinase Assay (ThermoFisher) was used. Briefly, 100 nL of different concentrations of the compounds in 100% DMSO were added to each well of a 384-well plate (Corning Cat. #4512). 2.4 μL of 30 mM HEPES, 2.5 μL of 4×ATP solution (in water), and 5 μL of 2× IRAK1/Histone H3 (1-20) peptide mixture (prepared in 50 mM HEPES pH 7.5, 0.01% BRIJ-35, 10 mM MgCl2, 1 mM EGTA) were added to each well. The plate was shaken for 30 seconds and centrifuged for 1 minute at 1000×g. The plate was then incubated at room temperature for 60 minutes. 5 μL of Detection Mix was added to each well. The plate was shaken for 30 seconds and centrifuged for 1 minute at 1000×g. The plate was then incubated at room temperature for 60 minutes. The plate was subsequently read on a fluorescence plate reader, and the emissions ratio was calculated to determine the ratio of ATP to ADP. Emissions Ratio=AF647 Emission (665 nm)/Europium Emission (615 nm).

[2] = target: IRAK4 (Homo sapiens (Human), UniProt Q9NWZ3); assay: Z'-LYTE assay (ThermoFisher) against IRAK4; format: biochemical; conditions: IRAK4/Ser/Thr 07, 60 minutes at room temperature
Chain of IRAK4 (Q9NWZ3 whole entry): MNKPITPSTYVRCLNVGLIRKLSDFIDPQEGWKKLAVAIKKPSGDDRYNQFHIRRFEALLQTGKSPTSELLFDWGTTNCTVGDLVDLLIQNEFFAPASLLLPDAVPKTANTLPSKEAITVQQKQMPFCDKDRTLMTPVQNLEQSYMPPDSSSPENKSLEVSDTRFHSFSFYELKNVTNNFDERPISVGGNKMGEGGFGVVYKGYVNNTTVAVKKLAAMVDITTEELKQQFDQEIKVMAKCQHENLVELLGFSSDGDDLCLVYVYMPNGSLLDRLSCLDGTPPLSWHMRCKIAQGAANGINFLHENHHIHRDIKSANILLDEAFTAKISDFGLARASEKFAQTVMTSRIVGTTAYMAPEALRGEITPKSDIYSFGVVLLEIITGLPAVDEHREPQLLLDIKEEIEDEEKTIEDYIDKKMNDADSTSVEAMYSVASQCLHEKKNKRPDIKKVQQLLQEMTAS
Procedure: To measure the 050 values of compounds herein against IRAK4, a Z′-LYTE assay (ThermoFisher) was used. Briefly, 2.5 μL. of different concentrations of the compounds in 1% DMSO were added to 2.4 μL kinase buffer (50 mM HEPES pH 7.5, 0.01% BRIJ-35, 10 mM MgCl2, 1 mM EGTA) in each well of a 384-well plate (Corning Cat. #3676). 5 μL of 2×IRAK4/Ser/Thr 07 mixture (prepared in 50 mM HEPES pH 7.5, 0.01% BRIJ-35, 10 mM MnCl2, 2 mM OTT, and 0.02% NaN3) and 2.5 μL of 4×ATP solution (4×ATP, 50 mM HEPES, pH 7.5, 0.01% BRIJ-35, 10 mM MgCl2, 1 mM EGTA) were added to each well. The plate was shaken for 30 seconds, and then incubated at room temperature for 60 minutes. 5 μL of a 1:100000 dilution of Development Reagent A was added to each well. The plate was shaken for 30 seconds and incubated for 60 minutes at room temperature. The plate was subsequently read on a fluorescence plate reader, and the emissions ratio was calculated to determine the ratio of Ser/Thr 07 phosphorylated by the reaction. Emissions Ratio=Coumarin Emission (443 nm)/Flourescein Emission (520 nm).

Chain of IRAK1 (P51617 whole entry): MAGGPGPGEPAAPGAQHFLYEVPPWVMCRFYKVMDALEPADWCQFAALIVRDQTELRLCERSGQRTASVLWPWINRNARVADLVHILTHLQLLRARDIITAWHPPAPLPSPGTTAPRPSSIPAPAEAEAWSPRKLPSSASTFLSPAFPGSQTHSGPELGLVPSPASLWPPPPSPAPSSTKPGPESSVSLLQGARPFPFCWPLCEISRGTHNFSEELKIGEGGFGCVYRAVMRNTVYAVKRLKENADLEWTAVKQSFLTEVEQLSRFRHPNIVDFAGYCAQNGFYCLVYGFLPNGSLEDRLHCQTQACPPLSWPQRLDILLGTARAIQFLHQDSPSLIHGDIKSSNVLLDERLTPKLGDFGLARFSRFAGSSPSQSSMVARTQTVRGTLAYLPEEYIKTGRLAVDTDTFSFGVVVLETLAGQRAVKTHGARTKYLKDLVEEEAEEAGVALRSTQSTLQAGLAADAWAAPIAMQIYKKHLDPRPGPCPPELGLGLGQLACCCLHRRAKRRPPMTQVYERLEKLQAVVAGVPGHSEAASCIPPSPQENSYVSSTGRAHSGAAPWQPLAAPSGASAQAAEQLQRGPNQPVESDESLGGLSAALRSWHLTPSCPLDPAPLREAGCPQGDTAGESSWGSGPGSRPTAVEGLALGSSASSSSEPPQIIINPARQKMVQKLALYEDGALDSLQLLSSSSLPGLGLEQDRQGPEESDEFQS

Compound	IC50 [1]	IC50 [2]
C=CC(=O)N[C@@H]1CCCC(C(=O)Nc2ccc(NC(=O)c3cccc(-c4ccn[nH]4)n3)cc2F)C1 (stereo partly shown) [Compound 001]	0.129 µM	> 10 µM
C=CC(=O)N[C@@H]1CCC[C@H](C(=O)Nc2ccc(NC(=O)c3cccc(-c4ccn[nH]4)n3)nc2)C1 [Compound 002, N-(5-((1S,3R)-3-acrylamidocyclohexane-1-carboxamido)pyridin-2-yl)-6-(1H-pyrazol-5-yl)-picolinamide]	0.257 µM	> 10 µM
C=CC(=O)N[C@@H]1CCCC(C(=O)Nc2ccc(NC(=O)c3cccc(-c4ccn[nH]4)n3)cc2C)C1 (stereo partly shown) [Compound 003]	0.671 µM	> 10 µM
C=CC(=O)N[C@H]1CCCC(C(=O)Nc2ccc(NC(=O)c3cccc(-c4ccn[nH]4)n3)nc2)C1 (stereo partly shown) [Compound 005]	0.189 µM	> 10 µM
C=CC(=O)N[C@@H]1CNC[C@H](C(=O)Nc2ccc(NC(=O)c3cccc(-c4ccn[nH]4)n3)nc2)C1 [Compound 006, N-(5-((3R,5S)-5-acrylamidopiperidine-3-carboxamido)pyridin-2-yl)-6-(1H-pyrazol-5-yl)-picolinamide]	0.014 µM	4 µM
C=CC(=O)N[C@@H]1CNCC(C(=O)Nc2ccc(NC(=O)c3cccc(-c4ccn[nH]4)n3)cc2F)C1 (stereo partly shown) [Compound 007]	0.15 µM	> 10 µM
C=CC(=O)N[C@H]1C[C@@H](C(=O)Nc2ccc(NC(=O)c3cccc(-c4ccn[nH]4)n3)nc2)CN(C)C1 [Compound 013, N-(5-((3R,5S)-5-acrylamido-1-methylpiperidine-3-carboxamido)pyridin-2-yl)-6-(1H-pyrazol-5-yl)picolinamide]	0.0185 µM	> 10 µM
C=CC(=O)N1CCC[C@H](C(=O)Nc2ccc(NC(=O)c3cccc(-c4cnoc4)n3)cc2F)C1 [Compound 032, (S)-N-(4-(1-acryloylpiperidine-3-carboxamido)-3-fluorophenyl)-6-(isoxazol-4-yl)picolinamide]	1.19 µM	> 10 µM
C=CC(=O)N1CCC[C@@H](C(=O)Nc2ccc(NC(=O)c3cccc(-c4cnoc4)n3)cc2F)C1 [Compound 034, (R)-N-(4-(1-acryloylpiperidine-3-carboxamido)-3-fluorophenyl)66-(isoxazol-4-yl)picolinamide]	0.344 µM	2.01 µM
C=CC(=O)N[C@H]1C[C@@H](C(=O)Nc2ccc(NC(=O)c3cccc(-c4ccn[nH]4)n3)nc2)CN(CC(F)F)C1 [Compound 039, N-(5-((3R,5S)-5-acrylamido-1-(2,2-difluorethyl)piperidine-3-carboxamido)pyridin-2-yl)-6-(1H-pyrazol-5-yl)picolinamide]	0.0149 µM	> 10 µM

The next lines start with the values.

IC50 [1]	IC50 [2]	Compound
0.301 µM	9.93 µM	C=CC(=O)NC12CC(C(=O)Nc3ccc(NC(=O)c4cccc(-c5ccn[nH]5)n4)cc3F)(C1)C2 [Compound 016]
0.612 µM	3.33 µM	C=CC(=O)N1CC2(CC(n3cc(-c4ccc(NC(=O)c5cccc(-c6cnoc6)n5)nc4)nn3)C2)C1 [Compound 024, N-(5-(1-(2-acryloyl-2-azaspiro[3,3]heptan-6-yl)-1H-1,2,3-triazol-4-yl)pyridin-2-yl)-6-(isoxazol-4-yl)picolinamide]
0.0681 µM	> 10 µM	C=CC(=O)N[C@@H]1CCC[C@H](C(=O)Nc2ccc(NC(=O)c3cccc(-c4ccn[nH]4)n3)cc2)C1 [Compound 026, N-(4-((1 S,3R)-3-acrylamidocyclohexane-1-carboxamido)phenyl)-6-(1H-pyrazol-5-yl)-picolinamide]
0.00637 µM	1.87 µM	C=CC(=O)N1CCC[C@H](C(=O)Nc2ccc(NC(=O)c3cccc(-c4ccn[nH]4)n3)nc2)C1 [Compound 027, (S)-N-(5-(1-acryloylpiperidine-3-carboxamido)pyridin-2-yl)-6-(1H-pyrazol-5-yl)picolinamide]
0.0125 µM	0.722 µM	C=CC(=O)N1CCC[C@@H](C(=O)Nc2ccc(NC(=O)c3cccc(-c4ccn[nH]4)n3)nc2)C1 [Compound 028, (R)-N-(5-(1-acryloylpiperidine-3-carboxamido)pyridin-2-yl)-6-(1H-pyrazol-5-yl)picolinamide]
0.658 µM	> 10 µM	C=CC(=O)N1CCC[C@H](C(=O)Nc2ccc(NC(=O)c3cccc(-c4cnoc4)n3)nc2)C1 [Compound 029, (S)-N-(5-(1-acryloylpiperidine-3-carboxamido)pyridin-2-yl)-6-(isoxazol-4-yl)picolinamide]
0.399 µM	3.33 µM	C=CC(=O)N1CCC[C@@H](C(=O)Nc2ccc(NC(=O)c3cccc(-c4cnoc4)n3)nc2)C1 [Compound 030, (R)-N-(5-(1-acryloylpiperidine-3-carboxamido)pyridin-2-yl)-6-(isoxazol-4-yl)picolinamide]
0.0401 µM	1.11 µM	C=CC(=O)N1CCC[C@H](C(=O)Nc2ccc(NC(=O)c3cccc(-c4ccn[nH]4)n3)cc2F)C1 [Compound 031, (S)-N-(4-(1-acryloylpiperidine-3-carboxamido)-3-fluorophenyl)-6-(1H-pyrazol-5-yl)picolinamide]
0.0742 µM	2.51 µM	C=CC(=O)N1CCC[C@@H](C(=O)Nc2ccc(NC(=O)c3cccc(-c4ccn[nH]4)n3)cc2F)C1 [Compound 033, (R)-N-(4-(1 acryloylpiperidine-3-carboxamido)-3-fluorophenyl)-6-(1H-pyrazol-5-yl)picolinamide]
0.0121 µM	> 10 µM	C=CC(=O)N[C@H]1C[C@@H](C(=O)Nc2ccc(NC(=O)c3cccc(-c4ccn[nH]4)n3)nc2)CN(CC(F)(F)F)C1 [Compound 038, N-(5-((3R,5S)-5-acrylamido-1-(2,2,2-trifluoroethyl)piperidine-3-carboxamido)pyridin-2-yl)-6-(1H-pyrazol-5-yl)picolinamide]
